Results as given in PubChem BioAssay AID1259407 (Chemical Carcinogenesis Research Information System (CCRIS), 2018).
Active and inactive are the calls of the source. The rule behind the calls is not given here.

System: CCRIS mutagenicity, Ames/micronucleus/aberration tests
Experiment: CCRIS mutagenicity studies
[1] = Test System: AMES SALMONELLA TYPHIMURIUM, Strain/Indicator: TA1535, Metabolic Activation: NONE, Method: STANDARD PLATE
[2] = Test System: E. COLI, Strain/Indicator: WP2, Metabolic Activation: NONE, Method: STANDARD PLATE
[3] = Test System: E. COLI, Strain/Indicator: WP2 UVRA, Metabolic Activation: NONE, Method: STANDARD PLATE
[4] = Test System: AMES SALMONELLA TYPHIMURIUM, Strain/Indicator: TA100, Metabolic Activation: NONE, Method: STANDARD PLATE
[5] = Test System: AMES SALMONELLA TYPHIMURIUM, Strain/Indicator: TA100, Metabolic Activation: RAT, LIVER, S-9, AROCLOR 1254, Method: STANDARD PLATE
[6] = Test System: AMES SALMONELLA TYPHIMURIUM, Strain/Indicator: TA100, Metabolic Activation: RAT, LIVER, S-9, PHENOBARBITAL, Method: STANDARD PLATE
[7] = Test System: AMES SALMONELLA TYPHIMURIUM, Strain/Indicator: TA98, Metabolic Activation: NONE, Method: STANDARD PLATE
[8] = Test System: AMES SALMONELLA TYPHIMURIUM, Strain/Indicator: TA98, Metabolic Activation: RAT, LIVER, S-9, AROCLOR 1254, Method: STANDARD PLATE

In the case of `CNC(=O)CNC(=O)C=[N+]=[N-]`, the mutagenic call (Test System: UDS RODENT CELLS, Strain/Indicator: THY INCORP (NON-S-PHASE), Metabolic Activation: NONE, Method: AUTORADIOGRAPHY) is reported as “active; positive”.
In the case of `[2H]C([2H])([2H])N=NO`, the mutagenic call [1] is reported as “active; positive”, the mutagenic call [2] is reported as “active; positive” and the mutagenic call [3] is reported as “active; positive”.
In the case of `N[C@@H]1CCCCN1.[Cl][Pt][Cl]`, the mutagenic call (Test System: AMES SALMONELLA TYPHIMURIUM, Strain/Indicator: TA98, Metabolic Activation: NONE, Method: PREINCUBATION) is reported as “active; positive”, the mutagenic call (Test System: AMES SALMONELLA TYPHIMURIUM, Strain/Indicator: TA100, Metabolic Activation: NONE, Method: PREINCUBATION) is reported as “active; positive” and the mutagenic call (Test System: AMES SALMONELLA TYPHIMURIUM, Strain/Indicator: TA100, Metabolic Activation: RAT, LIVER, S-9, AROCLOR 1254, Method: PREINCUBATION) is reported as “active; positive”.
With `O=c1nc(NNCCO)ccn1[C@@H]1O[C@H](CO)[C@@H](O)[C@H]1O` the mutagenic call (Test System: CHINESE HAMSTER V-79, Strain/Indicator: V-79/6-THIOGUANINE, Metabolic Activation: NONE, Method: REPLATING) was “active; positive”.
In the case of `COc1ccc(N(CCCl)CCCl)c2oc([N+](=O)[O-])cc12`, the mutagenic call (Test System: AMES SALMONELLA TYPHIMURIUM, Strain/Indicator: TA100(NR), Metabolic Activation: NONE, Method: STANDARD PLATE) is reported as “active; positive”, the mutagenic call (Test System: AMES SALMONELLA TYPHIMURIUM, Strain/Indicator: TA100(NR), Metabolic Activation: RAT, LIVER, S-9, AROCLOR 1254, Method: STANDARD PLATE) is reported as “active; positive” and the mutagenic call [4] is reported as “active; positive”. The mutagenic call [5] was “active; positive”.
`CN(C)/N=N/c1nc[nH]c1C(N)=O` was tested, and the mutagenic call (Test System: AMES SALMONELLA TYPHIMURIUM, Strain/Indicator: G46, Metabolic Activation: NONE, Method: STANDARD PLATE) was “inactive; negative”, the mutagenic call (Test System: AMES SALMONELLA TYPHIMURIUM, Strain/Indicator: G46, Metabolic Activation: RAT, LIVER, S-9, PHENOBARBITAL, Method: STANDARD PLATE) was “active; positive” and the mutagenic call (Test System: AMES SALMONELLA TYPHIMURIUM, Strain/Indicator: TA92, Metabolic Activation: NONE, Method: STANDARD PLATE) was “active; positive”. The mutagenic call (Test System: AMES SALMONELLA TYPHIMURIUM, Strain/Indicator: TA92, Metabolic Activation: RAT, LIVER, S-9, PHENOBARBITAL, Method: STANDARD PLATE) was “active; positive”, the mutagenic call (Test System: AMES SALMONELLA TYPHIMURIUM, Strain/Indicator: TA97, Metabolic Activation: HAMSTER, LIVER, S-9, AROCLOR 1254 (10%), Method: PREINCUBATION) was “active; positive” and the mutagenic call (Test System: AMES SALMONELLA TYPHIMURIUM, Strain/Indicator: TA97, Metabolic Activation: NONE, Method: PREINCUBATION) was “active; positive”. The mutagenic call (Test System: AMES SALMONELLA TYPHIMURIUM, Strain/Indicator: TA97, Metabolic Activation: RAT, LIVER, S-9, AROCLOR 1254 (10%), Method: PREINCUBATION) was “active; positive”, the mutagenic call (Test System: AMES SALMONELLA TYPHIMURIUM, Strain/Indicator: TA98, Metabolic Activation: HAMSTER, LIVER, S-9, AROCLOR 1254 (10%), Method: PREINCUBATION) was “active; positive” and the mutagenic call (Test System: AMES SALMONELLA TYPHIMURIUM, Strain/Indicator: TA98, Metabolic Activation: RAT, LIVER, S-9, AROCLOR 1254 (10%), Method: PREINCUBATION) was “active; positive”. For the same compound, the mutagenic call (Test System: AMES SALMONELLA TYPHIMURIUM, Strain/Indicator: TA98, Metabolic Activation: S-9, Method: PREINCUBATION) was “inactive; negative”, the mutagenic call (Test System: AMES SALMONELLA TYPHIMURIUM, Strain/Indicator: TA100, Metabolic Activation: HAMSTER, LIVER, S-9, AROCLOR 1254 (10%), Method: PREINCUBATION) was “active; positive” and the mutagenic call [4] was “active; positive”. The mutagenic call (Test System: AMES SALMONELLA TYPHIMURIUM, Strain/Indicator: TA100, Metabolic Activation: RAT, LIVER, S-9, AROCLOR 1254 (10%), Method: PREINCUBATION) was “active; positive”, the mutagenic call [6] was “active; positive” and the mutagenic call (Test System: AMES SALMONELLA TYPHIMURIUM, Strain/Indicator: TA100, Metabolic Activation: S-9, Method: PREINCUBATION) was “inactive; negative”. The mutagenic call (Test System: AMES SALMONELLA TYPHIMURIUM, Strain/Indicator: TA1535, Metabolic Activation: HAMSTER, LIVER, S-9, AROCLOR 1254 (10%), Method: PREINCUBATION) was “active; positive”, the mutagenic call (Test System: AMES SALMONELLA TYPHIMURIUM, Strain/Indicator: TA1535, Metabolic Activation: NONE, Method: PREINCUBATION) was “inactive; negative” and the mutagenic call (Test System: AMES SALMONELLA TYPHIMURIUM, Strain/Indicator: TA1535, Metabolic Activation: RAT, LIVER, S-9, AROCLOR 1254 (10%), Method: PREINCUBATION) was “active; positive”. The mutagenic call (Test System: E. COLI, Strain/Indicator: TM6, Metabolic Activation: NONE, Method: STANDARD PLATE) was “active; positive”, the mutagenic call (Test System: E. COLI, Strain/Indicator: TM6, Metabolic Activation: RAT, LIVER, S-9, PHENOBARBITAL, Method: STANDARD PLATE) was “active; positive” and the mutagenic call (Test System: E. COLI, Strain/Indicator: TM9, Metabolic Activation: NONE, Method: STANDARD PLATE) was “active; positive”. The mutagenic call (Test System: E. COLI, Strain/Indicator: TM9, Metabolic Activation: RAT, LIVER, S-9, PHENOBARBITAL, Method: STANDARD PLATE) was “active; positive”, the mutagenic call [2] was “active; positive” and the mutagenic call (Test System: E. COLI, Strain/Indicator: WP2, Metabolic Activation: RAT, LIVER, S-9, PHENOBARBITAL, Method: STANDARD PLATE) was “active; positive”. The mutagenic call [3] was “active; positive” and the mutagenic call (Test System: E. COLI, Strain/Indicator: WP2 UVRA, Metabolic Activation: RAT, LIVER, S-9, PHENOBARBITAL, Method: STANDARD PLATE) was “active; positive”.
In the case of `N=C(N)c1ccc(-c2cc3ccc(C(=N)N)cc3s2)cc1`, the mutagenic call [7] is reported as “inactive; negative”, the mutagenic call (Test System: AMES SALMONELLA TYPHIMURIUM, Strain/Indicator: TA98, Metabolic Activation: RAT, LIVER, S-9, PHENOBARBITAL, Method: STANDARD PLATE) is reported as “inactive; negative” and the mutagenic call [4] is reported as “inactive; negative”. The mutagenic call [6] was “inactive; negative”.
For `O=C(CCCN1CC=C(n2c(=O)[nH]c3ccccc32)CC1)c1ccc(F)cc1`, the mutagenic call (End Point: IN VITRO CHROMOSOMAL ABERRATIONS, Test System: HUMAN LYMPHOCYTES, Metabolic Activation: NONE) was “inactive; negative”.
`Nc1cnc2c(c1)nc1ccccn12` was tested, and the mutagenic call [7] was “inactive; negative”, the mutagenic call (Test System: AMES SALMONELLA TYPHIMURIUM, Strain/Indicator: TA98, Metabolic Activation: RAT, LIVER, CYTOSOL, AROCLOR 1254, Method: STANDARD PLATE) was “inactive; negative” and the mutagenic call (Test System: AMES SALMONELLA TYPHIMURIUM, Strain/Indicator: TA98, Metabolic Activation: RAT, LIVER, MICROSOMES, AROCLOR 1254, Method: STANDARD PLATE) was “inactive; negative”. The mutagenic call [8] was “active; positive”.
With `CCC(=O)OCC(=O)[C@@]1(OC(=O)CC)[C@H](C)C[C@H]2[C@H]3[C@H]([C@@H](O)C[C@@]21C)[C@@]1(C)C=CC(=O)C=C1C[C@H]3Cl` the mutagenic call [7] was “inactive; negative”, the mutagenic call [8] was “inactive; negative” and the mutagenic call [4] was “inactive; negative”. The mutagenic call [5] was “inactive; negative”, the mutagenic call [1] was “inactive; negative” and the mutagenic call (Test System: AMES SALMONELLA TYPHIMURIUM, Strain/Indicator: TA1535, Metabolic Activation: RAT, LIVER, S-9, AROCLOR 1254, Method: STANDARD PLATE) was “inactive; negative”. For the same compound, the mutagenic call (Test System: AMES SALMONELLA TYPHIMURIUM, Strain/Indicator: TA1537, Metabolic Activation: NONE, Method: STANDARD PLATE) was “inactive; negative”, the mutagenic call (Test System: AMES SALMONELLA TYPHIMURIUM, Strain/Indicator: TA1537, Metabolic Activation: RAT, LIVER, S-9, AROCLOR 1254, Method: STANDARD PLATE) was “inactive; negative” and the mutagenic call [2] was “inactive; negative”. For the same compound, the mutagenic call (Test System: E. COLI, Strain/Indicator: WP2, Metabolic Activation: RAT, LIVER, S-9, AROCLOR 1254, Method: STANDARD PLATE) was “inactive; negative”, the mutagenic call [3] was “inactive; negative” and the mutagenic call (Test System: E. COLI, Strain/Indicator: WP2 UVRA, Metabolic Activation: RAT, LIVER, S-9, AROCLOR 1254, Method: STANDARD PLATE) was “inactive; negative”.
